Like-named read-outs stand apart in the source and are kept apart here.
Columns and labels:
human ENT1 [1] = biological target: T1, human ENT1 (Homo sapiens, UniProt Q99808); test: Uridine transport inhibition assay (3H-uridine uptake, MDCKII-ENT1-LV cells); type: cell-based; details: 3H-uridine (1 μM), 1 min at 25° C.
T1 sequence (Q99808 1-456): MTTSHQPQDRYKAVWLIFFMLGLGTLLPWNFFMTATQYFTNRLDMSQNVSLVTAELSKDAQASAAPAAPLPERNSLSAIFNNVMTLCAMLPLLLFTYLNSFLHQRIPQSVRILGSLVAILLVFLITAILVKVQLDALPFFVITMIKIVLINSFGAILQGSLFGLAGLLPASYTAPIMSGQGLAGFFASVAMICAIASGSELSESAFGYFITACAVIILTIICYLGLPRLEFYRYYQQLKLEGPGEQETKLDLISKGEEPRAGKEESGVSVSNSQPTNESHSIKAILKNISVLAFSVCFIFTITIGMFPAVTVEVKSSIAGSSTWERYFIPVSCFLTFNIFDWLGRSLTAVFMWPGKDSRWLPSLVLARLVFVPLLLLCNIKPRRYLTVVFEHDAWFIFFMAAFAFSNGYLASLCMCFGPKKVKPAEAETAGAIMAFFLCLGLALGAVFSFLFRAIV
From the text: Purpose. The aim of this study was to determine the potency of equilibrative nucleoside transporter 1 (ENT1) inhibitors by measuring ENT1-mediated transport is the cellular uptake assay. The human ENT1 transporter can be stably expressed in Madin-Darby Canine Kidney II (MDCKII) cells via transduction. Uridine is efficiently transported by ENT1 and is used as probe in the assay as 3H-uridine. The interaction is detected as the modulation of the initial rate of 3H-uridine transport by human ENT1 into MDCKII-ENT1-LV cells stably expressing ENT1 uptake transporter.

[2] = tested on: stimulated primary human T cells; test: T cell proliferation assay (rescue of proliferation in presence of 100 uM ATP); type: cell-based
Method: Purpose. The aim of this study was to determine the potency of equilibrative nucleoside transporter 1 (ENT1) inhibitors to rescue proliferation by stimulated primary human T cells incubated in the presence of 100 uM Adenosine triphosphate (ATP) with: • Condition A: X-VIVO15 • Condition B: X-VIVO15, 2% Human Serum Albumine (HSA) and 0.1% α-1-Acid Glycoprotein (AAG)
Method. Cryopreserved purified human CD3+ T cells were thawed and washed twice with RPMI1640 medium, UltraGlutamine containing 10% hiFBS.
Cells were suspended in PBS containing 10% hiFBS. Cells were stained with CFSE by adding 2 μM solution in PBS, to get a final 1 μM CFSE solution. Cells were incubated while rotating for 5 minutes. Reaction was stopped by adding PBS with 10% FBS and cells were centrifuged for 5 minutes at 1500 rpm.
Cells were resuspended at 1.6×10^6 cells/mL, either in X-VIVO15 medium or in 4% Human Serum Albumin and 0.2% α-1-Acid Glycoprotein. 50 μL of cell suspension (8×10^4 T cells) was added to wells of sterile round-bottom 96-well plates. Cells were activated by adding 50 μL of anti-CD3 anti-CD28 coated microbeads, suspended either in XVIVO-15 medium or in 4% HSA and 0.2% α-1-Acid Glycoprotein, at a ratio of one microbead per two cells.
Serial dilutions of the ENT1 inhibitors were prepared in X-VIVO15 from 10 mM stock solutions in DMSO, and 50 μL was added to the wells.
ATP powder was diluted in X-VIVO15, and 50 μL of this compound was added to the wells to reach a final assay concentration of 100 μM. Final volume of 200 μL.
The experiments were also performed in 384 well plates—all volumes reduced by a factor of 4 ([…]) with a final volume of 50 μL.
Experiments were performed in duplicate. The cells were placed in a 37° C. humidified tissue culture incubator with 5% CO2 for 72 hours for 96 well plates, 96 hours for 384 well plates. After 72 or 96 hours, proliferation was measured determined by CFSE dilution via flow cytometry.
Results. Compounds of the invention have good ENT1 inhibitory properties.

[3] = tested on: human alpha 1-acid glycoprotein (AAG); test: AAG binding assay - HPLC assay; details: for retention time (rt) on immobilized human AAG column: 100 μmol/L
Method: Purpose. […] The principle of the assay is a liquid chromatography on a human AAG protein immobilized onto a silica support for separations of compounds following their affinity to AAG protein. By measuring the retention time, the binding to AAG can be determined relatively to the references.
Method. […] Mobile Phase A: 50 mM Ammonium acetate in deionized water; Mobile Phase B: Isopropanol; Column Oven: 8° C.; PDA(nm): 230; Flow Rate (mL/min): 0.2. Test Concentration (μmol/L): 100 (from 10 mmol/L DMSO solution diluted 100 folds by 50 mM Ammonium acetate in deionized water: Isopropanol (1:1)). Generic Gradient: Time (min): 0.01; 5; 13; 14; 20.

human AAG protein = test: AAG binding assay - dialysis assay; details: 2 μM, 37° C., 4-hr
Method: Purpose. The aim of this assay is to determine the binding of a compound of interest to the human AAG protein using the robust method of dialysis.
Material. […] The dialysis Buffer (100 mM Phosphate Buffered Saline, pH 7.4) has been prepared by dissolving 28.56 g Na2HPO4.12H2O (AR grade) and 3.12 g NaH2PO4.2H2O (AR grade) into a final volume of 1000 mL ultra pure water, mixed, and adjusted the resulting solution with 1% phosphoric acid or 1 M sodium hydroxide to pH 7.4±0.1. Stored the final solution in 2-8° C. refrigerator within an expiration of a month after preparation.
Method: The dialysis membrane is soaked in dialysis buffer at 4° C. overnight. The following day the membrane is separated into two strips and then soaked in ethanol: water (20:80 v:v) for 20 mins. Then the membrane was rinsed with ultra-pure water 3-4 times. Prepared 400 μM working solution by diluting the stock solution (10 mM) with appropriate volume of DMSO. 5 μL aliquots of each working solution were spiked into 1000 μL of blank protein (matrix) to achieve a 2 μM final concentration as loading solution. The plates of loading solution were mixed well. Aliquots of 150 μL of loading solution were loaded in triplicate to the donor side of each dialysis well and dialyzed against an equal volume of dialysis buffer. […]
The concentration was calculated using the peak area ratio of analyte and internal standard.

human ENT1 [4] = biological target: T1, human ENT1; test: ENT1 binding assay (competition with Sahenta-DY647 on JAR cells); design: JAR cells expressing ENT1 were bought from ATCC; host or cells: JAR cells; details: binned IC50
Summary of the method: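 JAR cells were incubated with test compounds and the fluorescent ligand Sahenta-DY647 in competition. Plates were washed twice by centrifugation (4 min, 400 rcf, 4 °C). Binding potency was derived from the final fluorescence.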

[5] = Condition A: X-VIVO15, read-out: TCell proliferation (Condition A) IC50
[6] = Condition B: X-VIVO15, 2% HSA and 0.1% AAG, read-out: TCell proliferation (Condition B) IC50

| IC50 (human ENT1 [1]) | retention time (rt) on immobilized human AAG column [3] | Human alpha-1-acid glycoprotein (AAG) (1 mg/mL) Unbound (human AAG protein) | IC50 (human ENT1 [4]) | AAG HPLC ([3]; AAG binding by HPLC retention time (rt) on CHIRALPAK AGP column, binned) | SMILES | IC50 [2, 5] | IC50 [2, 6] |
| --- | --- | --- | --- | --- | --- | --- | --- |
| < 0.1 µM | 5.2 min | 24.6% Unbound | 0.1 to 0.5 µM |  | COCCN(CCOC)c1nc(N2CCC(OC)CC2)c2nc(N(CCOC)CCOC)nc(N3CCC(OC)CC3)c2n1 [Compound 2, N2,N2,N6,N6-tetrakis(2-methoxyethyl)-4,8-bis(4-methoxypiperidin-1-yl)pyrimido[5,4-d]pyrimidine-2,6-diamine] | 0.1 to 0.5 µM | 0.1 to 0.5 µM |
|  | 14.05 min |  |  |  | CC(C)NCC(O)COc1cccc2ccccc12 (stereo not shown) [Propranolol, reference compound] |  |  |
| < 0.1 µM |  |  | < 0.1 µM |  | CCCN(C)c1nc(N(CCOC)CCOC)nc2c(N3CCC(OC)CC3)nc(N(CCOC)CCOC)nc12 [Compound 68, N2,N2,N6,N6-tetrakis(2-methoxyethyl)-8-(4-methoxypiperidin-1-yl)-N4-methyl-N4-propylpyrimido[5,4-d]pyrimidine-2,4,6-triamine] | 0.5 to 1 µM | 0.5 to 1 µM |
| < 0.1 µM |  |  | < 0.1 µM |  | COCCN(CCOC)c1nc(N2CCC(OC)CC2)c2nc(N(CCOC)CCOC)nc(N(C)Cc3cccnc3)c2n1 [Compound 81, N2,N2,N6,N6-tetrakis(2-methoxyethyl)-8-(4-methoxypiperidin-1-yl)-N4-methyl-N4-(pyridin-3-ylmethyl)pyrimido[5,4-d]pyrimidine-2,4,6-triamine] | 0.1 to 0.5 µM | 0.5 to 1 µM |
|  |  | 89.4% Unbound | 0.5 to 1 µM |  | COCCN(CCOC)c1nc(N2CCC(OC)CC2)c2nc(N(CCO)CCO)nc(N3CCC(OC)CC3)c2n1 [Compound 27, 2,2′-((6-(bis(2-methoxyethyl)amino)-4,8-bis(4-methoxypiperidin-1-yl)pyrimido[5,4-d]pyrimidin-2-yl)azanediyl)diethanol] |  |  |
| < 0.1 µM |  |  | < 0.1 µM |  | COCCN(CCOC)c1nc(N2CCC(OC)CC2)c2nc(N(CCO)Cc3cc(OC)c(OC)c(OC)c3)nc(N3CCC(OC)CC3)c2n1 [Compound 186, 2-((6-(bis(2-methoxyethyl)amino)-4,8-bis(4-methoxypiperidin-1-yl)pyrimido[5,4-d]pyrimidin-2-yl)(3,4,5-trimethoxybenzyl)amino)ethanol] | < 0.1 µM | 0.1 to 0.5 µM |
|  |  |  | < 0.1 µM | −− (rt below 6 min: −−) | COCCN(CCOC)c1nc(N2CCCC3(COC3)C2)c2nc(N(CCOC)CCOC)nc(N3CCC(OC)CC3)c2n1 [Compound 97, N2,N2,N6,N6-tetrakis(2-methoxyethyl)-4-(4-methoxypiperidin-1-yl)-8-(2-oxa-6-azaspiro[3.5]nonan-6-yl)pyrimido[5,4-d]pyrimidine-2,6-diamine] |  |  |
| < 0.1 µM |  |  | < 0.1 µM |  | COCCN(CCOC)c1nc(N2CCC(OC)CC2)c2nc(N(CCOC)CCOC)nc(NCc3ccc(F)c(C#N)c3)c2n1 [Compound 149, 5-(((2,6-bis(bis(2-methoxyethyl)amino)-8-(4-methoxypiperidin-1-yl)pyrimido[5,4-d]pyrimidin-4-yl)amino)methyl)-2-fluorobenzonitrile] | 0.1 to 0.5 µM | 0.1 to 0.5 µM |
| < 0.1 µM |  |  | < 0.1 µM |  | COCCN(CCOC)c1nc(N2CCC(OC)CC2)c2nc(N(CCOC)Cc3cc(OC)c(OC)c(OC)c3)nc(N3CCC(OC)CC3)c2n1 [Compound 184, N2,N2,N6-tris(2-methoxyethyl)-4,8-bis(4-methoxypiperidin-1-yl)-N6-(3,4,5-trimethoxybenzyl)pyrimido[5,4-d]pyrimidine-2,6-diamine] | < 0.1 µM | < 0.1 µM |

Source: US20230146675A1, “PYRIMIDO[5,4-d]PYRIMIDINE DERIVATIVES AS ENT INHIBITORS FOR THE TREATMENT OF CANCERS, AND COMBINATION THEREOF WITH ADENOSINE RECEPTOR ANTAGONISTS” (ITEOS BELGIUM SA, priority 2020, published 2023)
